Data on six compounds can be found in PubChem BioAssay (NCI).

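Where inhibition never reached the appropriate level, the endpoint shown equals the highest concentration tested. Otherwise, values were interpolated linearly from a five-concentration, 48-hour dose response in 96-well plates. The concentration for full growth arrest is given as TGI.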 Some results are limits rather than exact numbers.

Some test systems named below: A549 NSCLC; OVCAR-8 ovarian; SF-268 CNS; SF-539 CNS; SF-295 CNS; ACHN renal; SK-MEL-2 melanoma; NCI/ADR-RES ovarian; OVCAR-3 ovarian; NCI-H226 lung; HT29 colon; SNB-75 CNS; T-47D breast; NCI-H23 lung; COLO 205 colon; 786-0 renal; OVCAR-4 ovarian; SNB-19 CNS; MDA-MB-435; SK-OV-3 ovarian.
What all share (experiment): NCI tumour cell line growth inhibition, 48 h

As to `c1csc(-c2cscc2-c2ccsc2)c1`, the TGI in the test with A549 NSCLC is > 100 µM; in the test with OVCAR-8 ovarian, > 100 µM; in the test with SF-268 CNS, > 100 µM; in the test with SF-539 CNS, > 93.5 µM; with SF-295 CNS, > 100 µM; in the test with ACHN renal, > 100 µM. In addition, the TGI in the test with SK-MEL-2 melanoma is > 100 µM; with NCI/ADR-RES ovarian, > 100 µM; in the test with OVCAR-3 ovarian, 56.1 µM; in the test with NCI-H226 lung, > 78.9 µM; in the test with HT29 colon, > 100 µM; in the test on SNB-75 CNS it was > 100 µM. Further, the TGI in the test with T-47D breast, with NCI-H23 lung, in the test on COLO 205 colon, in the test with 786-0 renal, in the test on OVCAR-4 ovarian and with SNB-19 CNS was > 100 µM each time. Also, the TGI is > 68 µM with MDA-MB-435 and > 100 µM in the test on SK-OV-3 ovarian.

Take `Cc1c2cnccc2c(C)c2c1[nH]c1ccc(O)cc12`: the TGI with A549 NSCLC is > 10 µM; in the test on OVCAR-8 ovarian, 3.41 µM; with SF-268 CNS, > 10 µM; in the test with SF-539 CNS, 2.41 µM; in the test with SF-295 CNS, 5.57 µM; in the test with ACHN renal, 8.29 µM. Moreover, the TGI is > 10 µM in the test on SK-MEL-2 melanoma; 8.11 µM in the test on NCI/ADR-RES ovarian; 3.91 µM in the test with OVCAR-3 ovarian; > 10 µM in the test on NCI-H226 lung; > 10 µM in the test with HT29 colon; 8.09 µM in the test with SNB-75 CNS. Further, the TGI in the test with T-47D breast is > 10 µM; in the test on NCI-H23 lung, 8.25 µM; with COLO 205 colon, > 10 µM; with 786-0 renal it was 1.42 µM; with OVCAR-4 ovarian, 8 µM; in the test with SNB-19 CNS it was > 10 µM. The TGI is 8.73 µM in the test with MDA-MB-435 and > 10 µM with SK-OV-3 ovarian.

Take `CC1=NC(=O)C(C)(c2ccccc2)N1CCc1ccccc1` (stereo not given): the TGI with A549 NSCLC, in the test on OVCAR-8 ovarian, with SF-268 CNS, with SF-539 CNS, in the test with SF-295 CNS and in the test with ACHN renal was > 100 µM throughout. The TGI with SK-MEL-2 melanoma, in the test with NCI/ADR-RES ovarian, in the test on OVCAR-3 ovarian, in the test on NCI-H226 lung, in the test on HT29 colon and in the test with SNB-75 CNS was > 100 µM throughout. The TGI in the test with T-47D breast, in the test on NCI-H23 lung, in the test on COLO 205 colon, in the test with 786-0 renal, with OVCAR-4 ovarian and in the test on SNB-19 CNS was > 100 µM throughout. Moreover, the TGI in the test on MDA-MB-435 and in the test with SK-OV-3 ovarian was > 100 µM throughout.

As for `O=C1c2cc3c(cc2CC12Cc1cc4c(cc1C2=O)CCCC4)CCCC3`, the TGI in the test with A549 NSCLC is > 100 µM; in the test on OVCAR-8 ovarian it was > 100 µM; in the test on SF-268 CNS, > 100 µM; with SF-539 CNS it was > 100 µM; with SF-295 CNS, 69 µM; with ACHN renal it was > 100 µM. Moreover, the TGI was > 100 µM in the test on SK-MEL-2 melanoma; > 100 µM in the test on NCI/ADR-RES ovarian; 93.7 µM in the test on OVCAR-3 ovarian; > 100 µM in the test with NCI-H226 lung; > 100 µM in the test on HT29 colon; 53.4 µM in the test on SNB-75 CNS. Moreover, the TGI was 89.1 µM in the test on T-47D breast; > 100 µM in the test with NCI-H23 lung; > 100 µM with COLO 205 colon; 52.4 µM with 786-0 renal; 46.7 µM in the test with OVCAR-4 ovarian; > 100 µM with SNB-19 CNS. Further, the TGI in the test on MDA-MB-435 and with SK-OV-3 ovarian was > 100 µM each time.

Regarding `CSc1nc2ccccc2c(=O)n1/N=C1\C(=O)N(CN2CCCCC2)c2ccc(Cl)cc21`, the TGI in the test on A549 NSCLC, in the test on OVCAR-8 ovarian, with SF-268 CNS, in the test with SF-539 CNS, in the test on SF-295 CNS and in the test with ACHN renal was > 100 µM in each case. The TGI is 54.6 µM in the test with SK-MEL-2 melanoma; > 100 µM in the test with NCI/ADR-RES ovarian; > 100 µM with OVCAR-3 ovarian; > 100 µM in the test on NCI-H226 lung; > 100 µM with HT29 colon; 58.4 µM in the test with SNB-75 CNS. Also, the TGI in the test on T-47D breast was 54.8 µM; in the test on NCI-H23 lung, > 100 µM; in the test on COLO 205 colon, 36 µM; in the test on 786-0 renal, 69 µM; in the test with OVCAR-4 ovarian it was > 100 µM; with SNB-19 CNS, > 100 µM. Moreover, the TGI in the test on MDA-MB-435 was > 100 µM; in the test on SK-OV-3 ovarian, 94.7 µM.

With `NC(=O)C(Nc1c(Cl)cccc1Cl)c1cc2cc(Br)ccc2nc1Cl` (stereo not given), the TGI in the test with A549 NSCLC, with OVCAR-8 ovarian, with SF-268 CNS, with SF-539 CNS, with SF-295 CNS and in the test with ACHN renal was > 100 µM in each case. For the same compound, the TGI in the test on SK-MEL-2 melanoma, with NCI/ADR-RES ovarian, with OVCAR-3 ovarian, with NCI-H226 lung, in the test on HT29 colon and with SNB-75 CNS was > 100 µM throughout. Besides, the TGI in the test with T-47D breast, in the test with NCI-H23 lung, in the test with COLO 205 colon, in the test with 786-0 renal, with OVCAR-4 ovarian and in the test on SNB-19 CNS was > 100 µM throughout. The TGI with MDA-MB-435 is 49.9 µM; in the test with SK-OV-3 ovarian it was > 100 µM.
